The values that follow come from patent US6413733B1, “Stabilized reagent and method for determining creatine kinase” (Roche Diagnostics GmbH, priority 1997, dated 2002).

The subject of this experiment is G6P-DH. Description: Long-term stability G6P-DH, 10 mmol/l DTT compared to 1 mmol/l Na2SO3. It counts as biochemical. The conditions noted are these: 10 mmol/l DTT, example 3. On the procedure:
For the determination 250 μl R1 is mixed with 10 μl sample, incubated for 5 minutes, the reaction is started with 50 μl R2 and the CK activity is measured after incubating for a further 1 minute. The CK or G6P-DH enzyme activity was determined after storage at 2 to 8° C. or 35° C. for various periods (table 1-3,FIGS. 1-3).
The reagent R was combined with the sample to be measured as described in example 1 and the corresponding enzyme activities were determined (table 5,FIG. 5).

Consider `O[C@H](CS)[C@H](O)CS` (racemic) [DTT, dithiothreitol, reference compound], for which the G6P-DH activity was found to be 4.67 U/ml (0 days at 2 to 8° C.); 2.81 U/ml (55 days at 2 to 8° C.); 2.69 U/ml (85 days at 2 to 8° C.); 2.07 U/ml (114 days at 2 to 8° C.); 1.55 U/ml (136 days at 2 to 8° C.); 0.52 U/ml (192 days at 2 to 8° C.). Moreover, the G6P-DH activity (220 days at 2 to 8° C.) was 0.29 U/ml. For the same compound, the “G6P-DH activity relative to day 0” value is, setting by setting: (0 days at 2 to 8° C.) 100.0%; (55 days at 2 to 8° C.) 60.2%; (85 days at 2 to 8° C.) 57.6%; (114 days at 2 to 8° C.) 44.4%; (136 days at 2 to 8° C.) 33.1%; (192 days at 2 to 8° C.) 11.1%. The “G6P-DH activity relative to day 0” value (220 days at 2 to 8° C.) is 6.2%.
